From patent US20250382303A1, “NOVEL COMPOUND AS NADPH OXIDASE 2 INHIBITOR AND PHARMACEUTICAL COMPOSITION CONTAINING SAME” (DONGGUK UNIVERSITY INDUSTRY-ACADEMIC COOPERATION FOUNDATION, priority 2022, published 2025) come the findings set out here.

Assay [1] addresses T1, NOX2 (Homo sapiens, UniProt P04839).
T1 construct: Used for the NOX2 activity assay was human leukemia 60 cells (HL-60), which are widely, universally used to assess NOX2 activity; endogenous in cells
T1 sequence (P04839 2-570 limits assumed): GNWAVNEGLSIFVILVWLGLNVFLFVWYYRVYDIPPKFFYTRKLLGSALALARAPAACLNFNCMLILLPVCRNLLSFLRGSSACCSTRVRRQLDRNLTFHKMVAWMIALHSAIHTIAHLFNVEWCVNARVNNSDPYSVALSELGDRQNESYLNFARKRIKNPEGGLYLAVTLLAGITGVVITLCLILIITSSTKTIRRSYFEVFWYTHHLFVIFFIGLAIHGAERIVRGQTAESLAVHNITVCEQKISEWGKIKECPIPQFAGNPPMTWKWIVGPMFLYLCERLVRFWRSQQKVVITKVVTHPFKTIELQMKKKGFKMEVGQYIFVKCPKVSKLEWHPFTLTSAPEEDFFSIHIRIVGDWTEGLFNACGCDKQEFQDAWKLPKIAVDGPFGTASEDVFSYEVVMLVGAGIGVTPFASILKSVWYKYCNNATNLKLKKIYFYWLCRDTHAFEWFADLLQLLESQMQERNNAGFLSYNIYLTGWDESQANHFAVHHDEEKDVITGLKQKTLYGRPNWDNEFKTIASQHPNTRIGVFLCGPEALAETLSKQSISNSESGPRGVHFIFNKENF
T1 sequence (P13498 2-195 partner limits assumed): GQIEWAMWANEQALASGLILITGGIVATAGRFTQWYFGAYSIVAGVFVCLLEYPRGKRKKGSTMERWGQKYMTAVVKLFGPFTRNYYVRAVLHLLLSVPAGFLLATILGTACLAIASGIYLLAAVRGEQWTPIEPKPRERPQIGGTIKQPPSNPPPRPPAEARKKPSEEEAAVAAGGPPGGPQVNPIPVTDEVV
Description: NOX2 activity assay: PMA-induced ROS in ATRA-differentiated HL-60 cells (WST-1 or Amplex Red/HRP probe). Type of assay: cell-based. The conditions noted are these: for IC50: WST-1 probe, differentiated HL-60, 200 ng/mL PMA, read-out: Inhibitory ability (NOX2); for NOX2 inhibitory ability, verbal rating: WST-1, comment on Table 1. The protocol:
NOX activity was evaluated by measuring the reactive oxygen species (ROS) produced by NOX. The probes that were used to measure ROS were water soluble tetrazolium-1 (WST-1, superoxide-specific colorimetric probe) and Amplex Red/horseradish peroxidase (AR/HRP, hydrogen peroxide-specific fluorometric probe), and the concentration of the probes used was […]. For WST-1, the change in the absorbance at 450 nm was measured, and, for AR, the change in fluorescence signals was measured at 560 nm and 585 nm, respectively for excitation wavelength (Ex) and emission wavelength (Em). The optical signal was measured using the SpectraMax M3 microplate reader from Molecular Devices at 37° C. for 60 minutes.
Used for the NOX2 activity assay was human leukemia 60 cells (HL-60), which are widely, universally used to assess NOX2 activity. 1×10^5 cells/mL of HL-60 were treated with […] all-trans-retinoic acid (ATRA) for 4 days to induce differentiation. Differentiated HL-60 (diff. HL-60) was centrifuged at 200 g for 5 minutes and washed twice with HBSS. Differentiation was induced to reach 3×10^4 cells/well on a 96-well plate (diff). HL-60 was seeded. The test material was treated to cells and left in a 37° C. incubator for 60 minutes. As a control group, the same concentration of DMSO, which is the vehicle of the test material, was used. 200 ng/mL phorbol 12-myristate 13-acetate (PMA) was used as the NOX2 activator, and the production amount of ROS induced by PMA was measured for 60 minutes. […] diphenyleneiodonium (DPI), which is well known to inhibit NOX, was used as a positive control group to evaluate whether the NOX2 activity tester properly operates.
For orientation: Tetrazolium dyes change colour on reduction, which living cells bring about.

The nature of assay [2]: Non-specific free radical scavenging: superoxide produced by xanthine/xanthine oxidase, measured by WST-1. It counts as biochemical. The conditions noted are these: compound at 10 or 30 μM. The protocol: The scavenging activity that the effective compound in 10 or 30 μM scavenges the superoxide produced by xanthine/xanthine oxidase was measured by WST-1, the results of which are shown in Table 2.

Take `CC12CC(NC(=O)N1c1cccc(C(=O)N3CCc4ccccc4C3)c1)c1ccccc1O2` (racemic) [Compound 8a, 2-Methyl-3-(3-(1,2,3,4-tetrahydroisoquinoline-2-carbonyl)phenyl)-5,6-dihydro-2H-2,6-methanobenzo[g][1,3,5]oxadiazocin-4(3H)-one]: the IC50 in assay [1] was in the range of 1 to 10 µM. Also, the “scavenging of superoxide produced by xanthine/xanthine oxidase” value in assay [2] is on record as “did not exhibit significant peroxide scavenging ability”.

Regarding `CC12CC(NC(=O)N1c1cccc(C(=O)NCc3ccco3)c1)c1ccccc1O2` (racemic) [Compound 8g, N-(Furan-2-ylmethyl)-3-(2-methyl-4-oxo-5,6-dihydro-2H-2,6-methanobenzo[g][1,3,5]oxadiazocin-3(4H)-yl)benzamide], the IC50 in assay [1] was > 10 µM.

As to `CC12CC(NC(=O)N1c1cccc(C(=O)NC3CC3)c1)c1ccccc1O2` (racemic) [Compound 8h, N-Cyclopropyl-3-(2-methyl-4-oxo-5,6-dihydro-2H-2,6-methanobenzo[g][1,3,5]oxadiazocin-3(4H)-yl)benzamide], the IC50 in assay [1] was > 10 µM.

Consider `COc1cc2c(cc1OC)CN(C(=O)c1cccc(N3C(=O)NC4CC3(C)Oc3ccccc34)c1)CC2` (racemic) [Compound 8b, 3-(3-(6,7-Dimethoxy-1,2,3,4-tetrahydroisoquinoline-2-carbonyl)phenyl)-2-methyl-5,6-dihydro-2H-2,6-methanobenzo[g][1,3,5]oxadiazocin-4(3H)-one], for which, in assay [1], the IC50 was > 10 µM.

As for `CC12CC(NC(=O)N1c1cccc(C(=O)N3CCc4ccccc4C3)c1)c1ccc(-c3ccsc3)cc1O2` (stereo not shown) [Compound 26i, 2-Methyl-3-(3-(1,2,3,4-tetrahydroisoquinoline-2-carbonyl)phenyl)-9-(thiophen-3-yl)-5,6-dihydro-2H-2,6-methanobenzo[g][1,3,5]oxadiazocin-4(3H)-one], in assay [1], the IC50 was in the range of 1 to 10 µM.

On to `CC12CC(NC(=O)N1c1cccc(C(=O)N3CCc4ccccc4C3)c1)c1cc(C(F)(F)F)ccc1O2` (stereo not shown) [Compound 25b, 2-Methyl-3-(3-(1,2,3,4-tetrahydroisoquinoline-2-carbonyl)phenyl)-8-(trifluoromethyl)-5,6-dihydro-2H-2,6-methanobenzo[g][1,3,5]oxadiazocin-4(3H)-one], for which, in assay [1], the “NOX2 inhibitory ability, verbal rating” value was “excellent inhibitory ability” and the IC50 was > 10 µM.

`CC12CC(NC(=O)N1c1cccc(C(=O)N3CCc4cccc(C(F)(F)F)c4C3)c1)c1cc(-c3ccoc3)ccc1O2` (stereo not shown) [Compound 28g, 8-(Furan-3-yl)-2-methyl-3-(3-(8-(trifluoromethyl)-1,2,3,4-tetrahydroisoquinoline-2-carbonyl)phenyl)-5,6-dihydro-2H-2,6-methanobenzo[g][1,3,5]oxadiazocin-4(3H)-one]: in assay [1], the IC50 is > 10 µM.

As for `CC12CC(NC(=O)N1c1cccc(C(=O)NC3Cc4ccccc4C3)c1)c1ccccc1O2` (racemic) [Compound 8e, N-(2,3-Dihydro-1H-inden-2-yl)-3-(2-methyl-4-oxo-5,6-dihydro-2H-2,6-methanobenzo[g][1,3,5]oxadiazocin-3(4H)-yl)benzamide], the IC50 in assay [1] is > 10 µM.

For the molecule `COc1ccc(-c2ccc3c(c2)C2CC(C)(O3)N(c3cccc(C(=O)N4CCc5ccccc5C4)c3)C(=O)N2)cc1` (stereo not shown) [Compound 26e, 8-(4-Methoxyphenyl)-2-methyl-3-(3-(1,2,3,4-tetrahydroisoquinoline-2-carbonyl)phenyl)-5,6-dihydro-2H-2,6-methanobenzo[g][1,3,5]oxadiazocin-4(3H)-one], in assay [1], the “NOX2 inhibitory ability, verbal rating” value is “excellent inhibitory ability” and the IC50 was > 10 µM.

With `CC12CC(NC(=O)N1c1cccc(C(=O)N3CCc4ccccc4C3)c1)c1cc(Br)ccc1O2` (stereo not shown) [Compound 25a, 8-Bromo-2-methyl-3-(3-(1,2,3,4-tetrahydroisoquinoline-2-carbonyl)phenyl)-5,6-dihydro-2H-2,6-methanobenzo[g][1,3,5]oxadiazocin-4(3H)-one], the IC50 in assay [1] was > 10 µM.

On to `CC12CC(NC(=O)N1c1cccc(C(=O)N3CCc4cc(C(F)(F)F)ccc4C3)c1)c1cc(Br)ccc1O2` (stereo not shown) [Compound 27h, 8-Bromo-2-methyl-3-(3-(6-(trifluoromethyl)-1,2,3,4-tetrahydroisoquinoline-2-carbonyl)phenyl)-5,6-dihydro-2H-2,6-methanobenzo[g][1,3,5]oxadiazocin-4(3H)-one], for which the IC50 in assay [1] was 1 to 10 µM.

For `CN1C(=O)N(c2cccc(C(=O)N3CCc4ccccc4C3)c2)C2(C)CC1c1ccccc1O2` (stereo not shown) [Compound 9, 2,5-Dimethyl-3-(3-(1,2,3,4-tetrahydroisoquinoline-2-carbonyl)phenyl)-5,6-dihydro-2H-2,6-methanobenzo[g][1,3,5]oxadiazocin-4(3H)-one], the IC50 in assay [1] is > 10 µM.

As for `COc1ccc2c(c1)OC1(C)CC2NC(=O)N1c1cccc(C(=O)N2CCc3ccccc3C2)c1` (stereo not shown) [Compound 25l, 9-Methoxy-2-methyl-3-(3-(1,2,3,4-tetrahydroisoquinoline-2-carbonyl)phenyl)-5,6-dihydro-2H-2,6-methanobenzo[g][1,3,5]oxadiazocin-4(3H)-one], the IC50 in assay [1] was > 10 µM.

For `CC12CC(NC(=O)N1c1cccc(C(=O)N3CCc4ccccc4C3)c1)c1cc(-c3ccoc3)ccc1O2` (stereo not shown) [Compound 26b, 8-(Furan-3-yl)-2-methyl-3-(3-(1,2,3,4-tetrahydroisoquinoline-2-carbonyl)phenyl)-5,6-dihydro-2H-2,6-methanobenzo[g][1,3,5]oxadiazocin-4(3H)-one], in assay [1] (FIG. 1), the “concentration dependence of NOX2 inhibition” value is “inhibited NOX2 activity in a concentration-dependent manner”. Also, in assay [1], the “NOX2 inhibitory ability, verbal rating” value is “excellent inhibitory ability” and the IC50 was < 1 µM.

As for `CC12CC(NC(=O)N1c1cccc(C(=O)N3CCc4ccccc4C3)c1)c1cccc(Br)c1O2` (stereo not shown) [Compound 25f, 10-Bromo-2-methyl-3-(3-(1,2,3,4-tetrahydroisoquinoline-2-carbonyl)phenyl)-5,6-dihydro-2H-2,6-methanobenzo[g][1,3,5]oxadiazocin-4(3H)-one], in assay [1], the IC50 is > 10 µM.

For the molecule `CC12CC(NC(=O)N1c1cccc(-c3cccc(C#N)c3)c1)c1ccccc1O2` (stereo not shown) [Compound 15a, 3′-(2-Methyl-4-oxo-5,6-dihydro-2H-2,6-methanobenzo[g][1,3,5]oxadiazocin-3(4H)-yl)-[1,1′-biphenyl]-3-carbonitrile], the IC50 in assay [1] is > 10 µM.

Take `CN1C(=O)N(c2cccc(-c3ccco3)c2)C2(C)CC1c1ccccc1O2` (stereo not shown) [Compound 16, 3-(3-(Furan-2-yl)phenyl)-2,5-dimethyl-5,6-dihydro-2H-2,6-methanobenzo[g][1,3,5]oxadiazocin-4(3H)-one]: the IC50 in assay [1] was > 10 µM.
